As a reminder, the IC50 is the point on the concentration scale where inhibition reaches its midpoint. By inhibition is commonly meant the drop in the measured response relative to a control, in per cent.

Structures can show the parent of a compound that is named as a salt.

T1 sequence (I3LUI7 19-1212): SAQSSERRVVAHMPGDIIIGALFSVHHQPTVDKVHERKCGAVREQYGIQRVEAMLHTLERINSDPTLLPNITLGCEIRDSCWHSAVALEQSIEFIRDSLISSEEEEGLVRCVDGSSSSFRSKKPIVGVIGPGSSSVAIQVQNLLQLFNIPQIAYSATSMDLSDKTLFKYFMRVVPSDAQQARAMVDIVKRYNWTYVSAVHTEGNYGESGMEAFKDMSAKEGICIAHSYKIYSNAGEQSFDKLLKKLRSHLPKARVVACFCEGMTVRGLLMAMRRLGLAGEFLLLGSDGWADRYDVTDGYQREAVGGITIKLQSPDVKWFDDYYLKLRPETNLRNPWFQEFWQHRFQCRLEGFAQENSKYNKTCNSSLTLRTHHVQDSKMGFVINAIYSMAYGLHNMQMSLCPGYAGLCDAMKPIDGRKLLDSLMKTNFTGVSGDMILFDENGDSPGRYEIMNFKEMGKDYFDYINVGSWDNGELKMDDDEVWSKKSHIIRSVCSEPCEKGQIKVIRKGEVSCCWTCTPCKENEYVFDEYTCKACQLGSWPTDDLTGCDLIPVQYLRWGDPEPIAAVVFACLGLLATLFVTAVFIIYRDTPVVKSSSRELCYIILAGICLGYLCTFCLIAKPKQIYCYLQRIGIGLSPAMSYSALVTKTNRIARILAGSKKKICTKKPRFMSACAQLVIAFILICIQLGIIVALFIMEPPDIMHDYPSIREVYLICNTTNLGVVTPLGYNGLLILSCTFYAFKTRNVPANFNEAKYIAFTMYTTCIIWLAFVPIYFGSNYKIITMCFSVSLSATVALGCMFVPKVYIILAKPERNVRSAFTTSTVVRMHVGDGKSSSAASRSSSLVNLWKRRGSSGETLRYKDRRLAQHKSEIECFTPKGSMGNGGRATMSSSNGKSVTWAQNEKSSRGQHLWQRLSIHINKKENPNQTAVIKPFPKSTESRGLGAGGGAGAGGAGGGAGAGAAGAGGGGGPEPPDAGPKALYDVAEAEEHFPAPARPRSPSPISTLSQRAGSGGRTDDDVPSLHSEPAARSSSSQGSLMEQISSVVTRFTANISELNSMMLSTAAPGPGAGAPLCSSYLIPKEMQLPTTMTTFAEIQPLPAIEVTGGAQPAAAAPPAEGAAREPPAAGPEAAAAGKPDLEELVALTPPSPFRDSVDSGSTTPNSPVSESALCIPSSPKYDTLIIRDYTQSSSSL

One assay addresses T1, mGluR5 receptor (Sus scrofa, UniProt I3LUI7).
T1 construct: 450 μg of protein from brain homogenate with 5 nM ^3[H]-MPEP; from tissue; host or cells: pig brain halves without medulla, cerebellum and pons
In words: [3H]-MPEP mGluR5 receptor binding assay (pig brain homogenate). The conditions noted are these: 5 nM [3H]-MPEP, read-out: IC50 mGluR5 Receptor (pig) [^3H]-MPEP Bond. A digest of the protocol: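 Compounds at 10 μM competed with 5 nM [3H]-MPEP for binding to pig brain membranes (450 μg protein) for 60 min at room temperature in pH 8.0 Hepes buffer. Bound radioactivity was collected on glass-fibre filters and read by β-counting, with 10 μM unlabelled MPEP giving non-specific binding.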
For the molecule `COc1ccc(-c2ccc3ncnc(NC4CC4)c3c2)cc1CN(C(C)=O)C1CC1` [Example 259, N-cyclopropyl-N-[5-(4-cyclopropylamino-quinazolin-6-yl)-2-methoxy-benzyl]-acetamide], the half-inhibitory concentration (IC50) amounted to 290 nM. Still for that read-out and setting: with `O=C(CCc1ccccc1)N(Cc1cccc(-c2ccc3ncnc(NC4CC4)c3c2)c1)C1CC1` [Example 263, N-cyclopropyl-N-[3-(4-cyclopropylamino-quinazolin-6-yl)-benzyl]-3-phenyl-propionamide] the figure was 1700 nM; with `O=C(Cc1ccccc1)N(Cc1cccc(-c2ccc3ncnc(NC4CC4)c3c2)c1)C1CC1` [Example 264, N-cyclopropyl-N-[3-(4-cyclopropylamino-quinazolin-6-yl)-benzyl]-2-phenyl-acetamide], 1520 nM. Same read-out and setting: under `O=C(C1CCCCC1)N(Cc1cccc(-c2ccc3ncnc(NC4CC4)c3c2)c1)C1CC1` [Example 265, N-cyclopropyl-N-(3-(4-(cyclopropylamino)quinazolin-6-yl)benzyl)cyclohexane carboxamide] stands 1890 nM.

For the molecule `CC(C)(C)C(=O)N(Cc1cccc(-c2ccc3ncnc(NC4CC4)c3c2)c1)C1CC1` [Example 266, N-cyclopropyl-N-(3-(4-(cyclopropylamino)quinazolin-6-yl)benzyl)pivalamide], the IC50 is 1270 nM. The same measure, in the same setting: under `COc1ccc(CN(C(=O)c2ccccc2)C2CC2)cc1-c1ccc2ncnc(NC3CC3)c2c1` [Example 267, N-cyclopropyl-N-(3-(4-(cyclopropylamino)quinazolin-6-yl)-4-methoxybenzyl)benzamide hydrochloride] stands 6550 nM; under `COc1ccc(CN(C(=O)c2ccccc2)C2CC2)cc1-c1ccc2ncnc(NC3CC3)c2c1` [Example 268, N-cyclopropyl-N-(3-(4-(cyclopropylamino)quinazolin-6-yl)-4-methoxybenzyl)benzamide], 5410 nM. Still for that read-out and setting: with `CN(c1ncnc2ccc(-c3cccc(CN(C(=O)c4ccccn4)C4CC4)c3)cc12)C1CC1` [Example 272, N-cyclopropyl-N-(3-(4-(cyclopropyl(methyl)amino)quinazolin-6-yl)benzyl)picolinamide] the figure was 15300 nM; with `O=C(c1ccccc1)N(Cc1cccc(-c2ccc3ncnc(NC4CC4)c3c2)c1)C1CC1` [Example 274, N-cyclopropyl-N-(3-(4-(cyclopropylamino)quinazolin-6-yl)benzyl)benzamide], 860 nM. On the same count and under the same terms, under `O=C(c1ccccn1)N(Cc1cccc(-c2ccc3ncnc(NC4CC4)c3c2)c1)C1CC1` [Example 275, N-cyclopropyl-N-(3-(4-(cyclopropylamino)quinazolin-6-yl)benzyl) picolinamide] stands 1380 nM; under `N#CCC(=O)N(Cc1cc(-c2ccc3ncnc(NC4CC4)c3c2)ccc1F)C1CC1` [Example 277, 2-cyano-N-cyclopropyl-N-(5-(4-(cyclopropylamino)quinazolin-6-yl)-2-fluorobenzyl)acetamide], 40 nM. Regarding `O=C1CCCC(=O)N1Cc1cc(-c2ccc3ncnc(NC4CC4)c3c2)ccc1F` [Example 278, 1-(5-(4-(cyclopropylamino)quinazolin-6-yl)-2-fluorobenzyl)piperidine-2,6-dione], the IC50 was determined as 350 nM. On to `CC(=O)N(Cc1cc(-c2ccc3ncnc(NC4CC4)c3c2)ccc1F)C(C)(C)C` [Example 279, N-tert-butyl-N-(5-(4-(cyclopropylamino)quinazolin-6-yl)-2-fluorobenzyl)acetamide], for which the IC50 was found to be 9420 nM. Still for that read-out and setting: with `N#CCC(=O)N(Cc1cc(-c2ccc3ncnc(NC4CC4)c3c2)ccc1F)C1CC1` [Example 281, 2-cyano-N-cyclopropyl-N-(5-(4-(cyclopropylamino)quinazolin-6-yl)-2-fluorobenzyl)acetamide hydrochloride] the figure was 30 nM; with `O=C(CC(F)(F)F)N(Cc1cc(-c2ccc3ncnc(NC4CC4)c3c2)ccc1F)C1CC1` [Example 282, N-cyclopropyl-N-(5-(4-(cyclopropylamino)quinazolin-6-yl)-2-fluorobenzyl)-3,3,3-trifluoropropanamide], 50 nM; with `O=C(CCl)N(Cc1cc(-c2ccc3ncnc(NC4CC4)c3c2)ccc1F)C1CC1` [Example 283, 2-chloro-N-cyclopropyl-N-(5-(4-(cyclopropylamino)quinazolin-6-yl)-2-fluorobenzyl)acetamide], 290 nM.

Consider `CCCCNc1ncnc2ccc(-c3cccc(CN4C(=O)CCC4=O)c3)cc12` [Example 286, 1-(3-(4-(butylamino)quinazolin-6-yl)benzyl)pyrrolidine-2,5-dione hydrochloride], for which the IC50 worked out at 390 nM. The same measure, in the same setting: under `O=C1CCC(=O)N1Cc1cccc(-c2ccc3ncnc(NC4CCCC4)c3c2)c1` [Example 287, 1-(3-(4-(cyclopentylamino)quinazolin-6-yl)benzyl)pyrrolidine-2,5-dione hydrochloride] stands 60 nM; under `c1cc(CNC2CC2)cc(-c2ccc3ncnc(NC4CC4)c3c2)c1` [Example 294, N-cyclopropyl-6-(3-((cyclopropylamino)methyl)-phenyl)quinazoline-4-amine], 8670 nM. `COc1ccc(-c2ccc3ncnc(NC4CC4)c3c2)cc1CNC1CC1` [Example 298, N-cyclopropyl-6-(3-((cyclopropylamino)methyl)-4-methoxyphenyl)quinazoline-4-amine]: the IC50 is 10800 nM. The same measure, in the same setting: with `Fc1ccc(-c2ccc3ncnc(NC4CC4)c3c2)cc1CNC1CC1` [Example 299, N-cyclopropyl-6-(3-((cyclopropylamino)methyl)-4-fluorophenyl)quinazoline-4-amine] the figure was 2010 nM.

Consider `Fc1ccc(-c2ccc3ncnc(NC4CC4)c3c2)c(F)c1CNC1CC1` [Example 304, N-cyclopropyl-6-(3-((cyclopropylamino)methyl)-2,4-difluorophenyl)quinazoline-4-amine], for which the IC50 came out at 3110 nM.

The same assay, now with this note: 10 μM compound, 5 nM [3H]-MPEP, read-out: % Inhibition of mGluR5 Receptor (pig) [^3H]-MPEP Bond at 10 μM.
Consider `O=C1CCC(=O)N1Cc1cccc(-c2ccc3nc(NCc4ccccc4)nc(NC4CC4)c3c2)c1` [Example 291, 1-(3-(2-(benzylamino)-4-(cyclopropylamino)quinazolin-6-yl)benzyl)pyrrolidine-2,5-dione], for which the inhibition at 10 µM was determined as 49%. Same read-out and setting: with `c1cc(CN2CCc3ccccc32)cc(-c2ccc3ncnc(NC4CC4)c3c2)c1` [Example 292, N-cyclopropyl-6-(3-(indolin-1-ylmethyl)phenyl)quinazoline-4-amine] the figure was 95%; with `CC(C)(C)OC(=O)NCc1cccc(-c2ccc3ncnc(NC4CC4)c3c2)c1` [Example 295, tert-butyl 3-(4-(cyclopropylamino)quinazolin-6-yl)benzylcarbamate], 0%; with `c1nc(NC2CC2)c2cc(-c3csc(CNC4CC4)c3)ccc2n1` [Example 300, N-cyclopropyl-6-(5-((cyclopropylamino)methyl)thiophen-3-yl)quinazoline-4-amine], 51%. The same measure, in the same setting: with `Cc1cc(CNC2CC2)cc(-c2ccc3ncnc(NC4CC4)c3c2)c1` [Example 306, N-cyclopropyl-6-(3-((cyclopropylamino)methyl)-5-methylphenyl)quinazoline-4-amine] the figure was 33%; with `CC(NC1CC1)c1cccc(-c2ccc3ncnc(NC4CC4)c3c2)c1` (stereo not shown) [Example 307, N-cyclopropyl-6-(3-(1-(cyclopropylamino)ethyl)phenyl)quinazoline-4-amine], 37%.

(Values after patent publication US20090069320A1, “Substituted 4-Amino-Quinazoline Compounds with Metabotropic Glutamate Receptor Regulating Activity and Uses Thereof” (Gruenenthal GmbH, priority 2006, published 2009).)
